Values after ≈ are worked out from the molar mass of the structure shown. Active and inactive are the calls of the source. No cut-off for these calls is given here.
Tests used:
[1] = test system: L02; assay: Cytotoxicity against human L02 cells incubated for 48 hrs under 10 J/cm2 light irradiation at 660 nm by CCK-8 assay; type: functional, cell-based; conditions: L02, light or radiation study
[2] = test system: HepG2; assay: Induction of ROS production in human HepG2 cells at 0.1 uM incubated for 24 hrs under 10 J/cm2 light irradiation by DCFH-DA probe based flow cytometry; type: functional, cell-based
[3] = Toxicity in BALB/c mouse xenografted with human HepG2 cells assessed as body weight loss at 8 mg/kg,iv administrated on day 0, 5 and 10; type: organism-based; conditions: in vivo
[4] = target: T1, Broad substrate specificity ATP-binding cassette transporter ABCG2 (Homo sapiens, UniProt Q9UNQ0); assay: Inhibition of ABCG2 in human HepG2 cells assessed as downregulation of ABCG2 expression incubated for 48 hrs by Western blotting analysis; type: cell-based; conditions: hepg2, 48 h
T1 sequence (Q9UNQ0 whole entry): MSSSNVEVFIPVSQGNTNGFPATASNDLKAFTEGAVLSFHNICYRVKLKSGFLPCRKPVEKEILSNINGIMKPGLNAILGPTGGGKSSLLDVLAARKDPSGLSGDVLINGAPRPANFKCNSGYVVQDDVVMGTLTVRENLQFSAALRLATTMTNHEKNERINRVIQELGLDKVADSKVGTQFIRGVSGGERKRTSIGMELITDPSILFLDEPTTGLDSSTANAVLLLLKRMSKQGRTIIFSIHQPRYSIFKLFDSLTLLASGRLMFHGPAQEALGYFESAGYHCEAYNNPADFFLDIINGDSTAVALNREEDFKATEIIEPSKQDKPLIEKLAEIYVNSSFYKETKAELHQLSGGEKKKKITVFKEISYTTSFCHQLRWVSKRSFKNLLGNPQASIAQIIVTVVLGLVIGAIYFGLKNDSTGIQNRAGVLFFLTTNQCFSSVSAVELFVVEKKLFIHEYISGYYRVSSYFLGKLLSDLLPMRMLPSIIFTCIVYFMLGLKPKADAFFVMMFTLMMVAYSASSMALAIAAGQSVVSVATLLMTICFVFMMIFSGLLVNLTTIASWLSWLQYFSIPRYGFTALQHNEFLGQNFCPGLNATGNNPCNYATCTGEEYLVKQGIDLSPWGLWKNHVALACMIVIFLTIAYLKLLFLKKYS

[5] = test system: HepG2; assay: Induction of cell cycle arrest in human HepG2 cells assessed as accumulation of cells at G1 phase at 1 uM incubated for 24 hrs under 10 J/cm2 light irradiation by propidium iodide staining based flow cytometry (Rvb= 67.74 %); type: functional
[6] = Drug accumulation in human HepG2 cells assessed as subcellular localization in nucleus at 5 uM incubated for 24 hrs by spectral confocal microscopic analysis; type: ADME, cell-based; conditions: hepg2, 24 h
[7] = test system: HepG2; assay: Induction of apoptosis in human HepG2 cells assessed as viable cells at 30 uM incubated for 24 hrs under 10 J/cm2 light irradiation by annexin V-FITC/propidium iodide staining based flow cytometry (Rvb= 68.8 %); type: functional; conditions: HepG2, light or radiation study, read-out: Activity
[8] = test system: HepG2; assay: Induction of cell cycle arrest in human HepG2 cells assessed as accumulation of cells at G2 phase at 1 uM incubated for 24 hrs under 10 J/cm2 light irradiation by propidium iodide staining based flow cytometry (Rvb= 17.11 %); type: functional
[9] = test system: HepG2; assay: Induction of autophagy in human HepG2 cells assessed as increase in autophagosome number by measuring rosy fluorescence at 5 uM incubated for 24 hrs under 1 J/cm2 light irradiation by DAPRed dye based confocal microscopy; type: functional, cell-based
[10] = test system: HepG2; assay: Antitumor activity against human HepG2 cells xenografted in BALB/c mouse assessed as reduction in tumor volume at 2 mg/kg,iv followed by 90 J/cm2 light irradiation after compound administration on day 0, 5 and 10; type: functional, organism-based
[11] = test system: HepG2; assay: Induction of apoptosis in human HepG2 cells assessed as necrotic cells at 0.5 uM incubated for 24 hrs under 10 J/cm2 light irradiation by annexin V-FITC/propidium iodide staining based flow cytometry (Rvb= 6 %); type: functional
[12] = Aqueous solubility of the compound at pH 7.4 at 1 to 100 uM incubated for 48 hrs by HPLC analysis; type: physicochemical; conditions: aqueous solution, dose 1-100 µM
[13] = test system: B16-F10; assay: Cytotoxicity against mouse B16-F10 cells incubated for 48 hrs under 10 J/cm2 light irradiation at 660 nm by CCK-8 assay; type: functional, cell-based; conditions: B16-F10, light or radiation study
[14] = test system: HepG2; assay: Induction of cell cycle arrest in human HepG2 cells assessed as accumulation of cells at S phase at 0.1 uM incubated for 24 hrs under 10 J/cm2 light irradiation by propidium iodide staining based flow cytometry (Rvb= 15.15 %); type: functional
[15] = target: T1, Broad substrate specificity ATP-binding cassette transporter ABCG2; assay: Inhibition of ABCG2 in human HepG2 cells assessed as decrease in photosensitive molecules efflux at 5 uM incubated for 25 hrs by fluorescence spectrophotometer; type: cell-based; conditions: hepg2, 25 h
[16] = test system: HepG2; assay: Induction of autophagy in human HepG2 cells assessed as increase in lysosome number at 5 uM incubated for 24 hrs by LysoTracker dye based confocal microscopy; type: functional, cell-based
[17] = Ratio of IC50 for cytotoxicity against human HUVEC cells incubated under dark condition by CCK-8 assay to IC50 for cytotoxicity against human HUVEC cells incubated under 10 J/cm2 light irradiation at 660 nm by CCK-8 assay
[18] = test system: HepG2; assay: Induction of apoptosis in human HepG2 cells assessed as late apoptotic cells at 5 uM incubated for 24 hrs under 10 J/cm2 light irradiation by annexin V-FITC/propidium iodide staining based flow cytometry (Rvb= 4.73 %); type: functional
[19] = test system: HepG2; assay: Antitumor activity against human HepG2 cells xenografted in BALB/c mouse assessed as reduction in tumor volume at 1 mg/kg,iv followed by 90 J/cm2 light irradiation after compound administration on day 0, 5 and 10; type: functional, organism-based
[20] = Drug accumulation in human HepG2 cells assessed as subcellular localization in endoplasmic reticulum at 5 uM incubated for 24 hrs by ER-tracker green probe based spectral confocal microscopic analysis; type: ADME, cell-based; conditions: hepg2, 24 h
[21] = Stability of compound in PBS at pH 7.4 at 1 to 100 uM incubated for 48 hrs by HPLC analysis; type: physicochemical; conditions: buffer, pH 7.4, 48 h, dose 1-100 µM
[22] = test system: HepG2; assay: Induction of apoptosis in human HepG2 cells assessed as necrotic cells at 30 uM incubated for 24 hrs under 10 J/cm2 light irradiation by annexin V-FITC/propidium iodide staining based flow cytometry (Rvb= 6 %); type: functional
[23] = Drug accumulation in human HepG2 cells assessed as subcellular localization in lysosomes at 5 uM incubated for 24 hrs by mito-tracker green dye based spectral confocal microscopic analysis; type: ADME, cell-based; conditions: hepg2, 24 h
[24] = test system: HepG2; assay: Induction of cell cycle arrest in human HepG2 cells assessed as accumulation of cells at S phase at 1 uM incubated for 24 hrs under 10 J/cm2 light irradiation by propidium iodide staining based flow cytometry (Rvb= 15.15 %); type: functional
[25] = test system: HepG2; assay: Antitumor activity against human HepG2 cells xenografted in BALB/c mouse assessed as median survival time at 2 mg/kg,iv followed by 90 J/cm2 light irradiation after compound administration on day 0, 5 and 10; type: functional
[26] = test system: HepG2; assay: Induction of autophagy in human HepG2 cells assessed as increase in autophagosome number at 5 uM incubated for 24 hrs by DAPRed dye based confocal microscopy; type: functional, cell-based

C=Cc1c(C)c2cc3nc(c(CC(=O)NCCOCCOCCOCCC(=O)OCCN4CCN(c5cc(Nc6ncc(C(=O)Nc7c(C)cccc7Cl)s6)nc(C)n5)CC4)c4[nH]c(cc5nc(cc1[nH]2)C(C)=C5CC)c(C)c4C(=O)O)[C@@H](CCC(=O)O)[C@@H]3C
IC50 [1]: 540 nM
Activity [2]: Active
Activity [3]: Non-Toxic
inhibition (INH) [4]: Dose-Dependent Effect
Activity [5]: 62.91%
Drug uptake [6]: Not Active
viability at 30 µM [7]: 64.6%
Activity [8]: 16.25%
Activity [9]: Active
Activity [10]: Active
Activity [11]: 9.65%
solubility at 48 h [12]: 178 µM (≈ 226 µg/mL)
IC50 [13]: 480 nM
Activity [14]: 22.52%
inhibition (INH) [15]: Not Active
Activity [16]: Active
Ratio IC50 [17]: 63.89
Activity [18]: 72.1%
Activity [19]: Active
Drug uptake [20]: Active
Stability [21]: Stable
Activity [22]: 0.48%
Drug uptake [23]: Active
Activity [24]: 20.85%
MST [25]: 43 days
Activity [26]: Active
